Source: PMC8409457, “An evolution-inspired strategy to design disulfide-rich peptides tolerant to extensive sequence manipulation” (Chemical Science, 2021)
Where a SMILES comes first, the peptide text is derived from it. Bridges are numbered along the chain shown (N, C = ends).

Columns and labels:
Bcl-2 = biological target: T1, Bcl-2 (Homo sapiens, UniProt P10415); experiment: Surface plasmon resonance (SPR), binding to immobilized Sumo-Bcl-2; conditions: for Binding affinity to Bcl-2 (SPR), in words: SPR sensorgrams, peptide 160–2560 nM
T1 construct: made in house; host or cells: E. coli
Method: (§1) 1.7 Surface plasmon resonance (SPR) assays
(§2) SPR assays were performed using a Biacore T200. Target proteins (Sumo-Bcl-2 and […]
(§3) to reach a target response of 1000 RU. Flow cell Fc3 that was not immobilized with proteins was used as the reference channel. […]

[1] = Thermal denaturation monitored using circular dichroism; format: physicochemical; conditions: CD, 50 μM peptide in water, 25–95 °C, ellipticity at 220 nm
Method: Circular dichroism (CD) spectra were measured using a 1.0 mm path length cuvette at room temperature (25 ℃). All measured peptides were dissolved in water to reach a concentration of 50
μM. The baseline signal (pure aqueous solution) were subtracted from each spectrum. CD spectra were recorded in a wavelength range of 190 ‒ 260 nm with a bandwidth of 2.0 nm, a date pitch of 1.0 nm, a response time of 8. 0 s, and a scanning speed of 50 nm/min. The thermal denaturation CD spectra were recorded in a temperature range of 25 ‒ 95 ℃ with a heating rate of 10 ℃/min. For temperature melts, the change of ellipticity at 220 nm was monitored as temperature increased f rom 25 to 95 °C in an increment of 10 °C. Other experimental conditions were consistent with those of […]

streptavidin = biological target: T2, streptavidin (Streptomyces avidinii, UniProt P22629); experiment: Surface plasmon resonance (SPR), binding to immobilized streptavidin; conditions: SPR sensorgrams, peptide 20–320 nM
T2 construct: purchased Biosynthesis Biotechnology (Beijing, China)
Method: as §1, §2, §3

chymotrypsin = experiment: Proteolytic stability of peptides toward chymotrypsin; format: in vitro ADME; conditions: 100 μM peptide, phosphate buffer 100 mM pH 7.4, 37 °C, HPLC, 0–180 min
Method: 1.9 Proteolytic stability of peptides
100 μM 15-Ala, 16-Ala, oxidized 15, and oxidized 16 were respectively treated with phosphate buffer (pH = 7.4, 100 mM) containing chymotrypsin at 37 °C . The chymotrypsin concentration used for the digestion of 15 - Ala and oxidized 15 is 0.3 μ g/mL . The chymotrypsin concentration used for the digestion of 16 - Ala and oxidized 16 is 5.0 μ g/mL . At pred e fined time s , 50 μ L aliqu ots were taken with a pipette , quenched with 70 μ L 10% HPO 3 , and analyzed by HPLC. […]

MDM2 = MDM2 (Homo sapiens, UniProt Q00987); experiment: Fluorescence polarization competition assay, binding to MDM2
Method: 1.6 Fluorescence polarization (FP) assays
Infinite® 200 PRO Microplate Reader. […]
data with the single-site binding model. […]
described above, and fluorescence anisotropies were recorded. The Ki value of the binding between […]
been described in our previous reports.1,6
as §1, §2

Sequence of MDM2 (Q00987 whole entry, species assumed): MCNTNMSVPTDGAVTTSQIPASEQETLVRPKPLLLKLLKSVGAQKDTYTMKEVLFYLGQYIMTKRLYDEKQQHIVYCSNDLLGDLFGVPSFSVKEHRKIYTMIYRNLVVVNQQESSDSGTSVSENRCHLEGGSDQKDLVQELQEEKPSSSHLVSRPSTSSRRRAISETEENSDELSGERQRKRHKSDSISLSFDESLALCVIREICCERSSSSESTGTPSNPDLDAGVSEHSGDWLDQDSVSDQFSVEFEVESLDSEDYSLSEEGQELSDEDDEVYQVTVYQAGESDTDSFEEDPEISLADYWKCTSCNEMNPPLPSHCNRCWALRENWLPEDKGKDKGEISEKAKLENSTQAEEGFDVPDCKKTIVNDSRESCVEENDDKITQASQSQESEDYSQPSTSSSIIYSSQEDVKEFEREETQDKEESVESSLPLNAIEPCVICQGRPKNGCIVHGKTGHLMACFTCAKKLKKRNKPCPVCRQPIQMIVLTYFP
T2 sequence (P22629 25-183): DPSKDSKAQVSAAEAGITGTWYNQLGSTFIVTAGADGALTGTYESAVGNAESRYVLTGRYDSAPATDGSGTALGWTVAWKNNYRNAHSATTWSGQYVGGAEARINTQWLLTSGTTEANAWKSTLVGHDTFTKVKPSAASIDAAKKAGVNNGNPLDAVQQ
T1 sequence (P10415 whole entry, species assumed): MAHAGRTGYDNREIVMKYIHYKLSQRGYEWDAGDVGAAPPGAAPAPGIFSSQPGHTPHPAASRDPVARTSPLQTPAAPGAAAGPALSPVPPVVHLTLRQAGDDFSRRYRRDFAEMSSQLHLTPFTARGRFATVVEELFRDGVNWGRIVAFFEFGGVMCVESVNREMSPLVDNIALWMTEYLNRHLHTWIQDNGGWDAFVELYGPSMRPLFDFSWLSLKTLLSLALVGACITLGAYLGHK

| Compound | Binding affinity to Bcl-2 (SPR), in words (Bcl-2) | Stability to heat treatment (aggregation) [1] | Binding affinity to streptavidin (SPR), in words (streptavidin) | Binding affinity to MDM2 (FP competition), in words (MDM2) | further results |
| --- | --- | --- | --- | --- | --- |
| CC[C@H](C)[C@@H]1NC(=O)[C@@H]2CSSC[C@H](NC(=O)[C@H](CC(C)C)NC(=O)[C@H](CCC(=O)O)NC(=O)[C@@H]3CCCN3C(=O)[C@H](Cc3ccccc3)NC1=O)C(=O)N1CCC[C@H]1C(=O)N[C@@H](Cc1c[nH]c3ccccc13)C(=O)N[C@@H]([C@@H](C)CC)C(=O)N[C@@H](C(C)C)C(=O)N[C@H]1CSSC[C@H](NC(=O)CNC(C)=O)C(=O)N[C@@H](CCC(=O)O)C(=O)N[C@@H](CCCCN)C(=O)N[C@@H](C)C(=O)N[C@@H]([C@@H](C)O)C(=O)N[C@@H](CCC(=O)O)C(=O)N[C@@H](CO)C(=O)N[C@@H](CCC(=O)O)C(=O)N[C@@H](CO)C(=O)N3CCC[C@H]3C(=O)N[C@@H](CSSC[C@@H](C(N)=O)NC1=O)C(=O)N1CCC[C@H]1C(=O)N2 [Oxidized 15] (Ac-GCEKATESESPCPCIFPELCPWIVCC-NH2; disulfide 2-25, 12-26, 14-20) | no binding affinity | no aggregation was observed | no binding affinity | – | Stability toward proteolysis by chymotrypsin compared to linear analog (chymotrypsin; chymotrypsin 0.3 μg/mL, versus 15-Ala): significantly more stable |
| CC[C@H](C)[C@@H]1NC(=O)[C@H](CC(N)=O)NC(=O)[C@H](CCC(=O)O)NC(=O)[C@@H]2CCCN2C(=O)[C@@H]2CSSC[C@H](NC(=O)[C@@H]3CCCN3C(=O)[C@@H]3CSSC[C@@H](C(N)=O)NC(=O)[C@H](CSSC[C@H](NC(=O)CNC(C)=O)C(=O)N[C@@H](CCSC)C(=O)N[C@@H]([C@@H](C)CC)C(=O)N[C@@H](CC(C)C)C(=O)N[C@@H](CC(C)C)C(=O)N[C@@H](CC(=O)O)C(=O)N[C@@H]([C@@H](C)O)C(=O)N[C@@H](CC(=O)O)C(=O)N[C@@H]([C@@H](C)CC)C(=O)N[C@@H](Cc4c[nH]c5ccccc45)C(=O)N3)NC1=O)C(=O)N[C@@H](CO)C(=O)N[C@@H](Cc1c[nH]cn1)C(=O)N1CCC[C@H]1C(=O)N[C@@H](Cc1ccc(O)cc1)C(=O)N[C@@H](C)C(=O)N2 [Oxidized 16] | – | no aggregation was observed | negligible binding affinity | negligible binding affinity | kd, binding kinetics with Bcl-2 (SPR) (Bcl-2; Biacore T200, 1:1 binding model, peptide 0.16–2.56 μM): 0.0498 s⁻¹; kon (Bcl-2; read-out: ka, binding kinetics with Bcl-2 (SPR)): 126000 M⁻¹ s⁻¹; Stability toward proteolysis by chymotrypsin compared to linear analog (chymotrypsin; chymotrypsin 5.0 μg/mL, versus 16-Ala): significantly more stable |
| CC[C@H](C)[C@@H]1NC(=O)[C@H](Cc2c[nH]c3ccccc23)NC(=O)[C@@H]2CCCN2C(=O)[C@@H]2CSSC[C@H](NC(=O)[C@@H]3CCCN3C(=O)[C@@H]3CSSC[C@@H](C(N)=O)NC(=O)[C@H](CSSC[C@H](NC(C)=O)C(=O)NCC(=O)N[C@@H](CO)C(=O)NCC(=O)N[C@@H](CO)C(=O)NCC(=O)N[C@@H](CO)C(=O)NCC(=O)N[C@@H](CO)C(=O)NCC(=O)N3)NC(=O)[C@H](CCCNC(=N)N)NC1=O)C(=O)N[C@@H]([C@@H](C)CC)C(=O)N[C@@H](Cc1c[nH]c3ccccc13)C(=O)N1CCC[C@H]1C(=O)N[C@@H](CCC(=O)O)C(=O)N[C@@H](CC(C)C)C(=O)N2 [compound 8] (Ac-CGSGSGSGSGCPCIWPELCPWIRCC-NH2; disulfide 1-24, 11-25, 13-19) | – | – | – | – | Ki (MDM2; PBS pH 7.4, room temperature, peptides HPLC-purified >95%): 164 nM |
| CSCC[C@@H]1NC(=O)[C@@H]2CCCN2C(=O)[C@@H]2CSSC[C@H](NC(=O)[C@@H]3CCCN3C(=O)[C@@H](NC(=O)[C@H](Cc3ccccc3)NC(=O)[C@@H]3CSSC[C@H](NC(=O)CNC(C)=O)C(=O)NCC(=O)N[C@@H](CO)C(=O)N[C@@H](CC(=O)O)C(=O)N[C@@H](CCC(=O)O)C(=O)N[C@@H](C)C(=O)N3)CSSC[C@@H](C(N)=O)NC(=O)[C@H](Cc3c[nH]cn3)NC(=O)[C@H](CCC(N)=O)NC(=O)[C@H](C)NC1=O)C(=O)N[C@@H](CO)C(=O)N[C@@H](Cc1c[nH]cn1)C(=O)N1CCC[C@H]1C(=O)N[C@@H](CCC(=O)O)C(=O)N[C@@H](CC(N)=O)C(=O)N2 [compound 17] (Ac-GCGSDEACFCPCSHPENCPMAQHC-NH2; disulfide 2-8, 10-24, 12-18) | negligible binding affinity | – | – | negligible binding affinity | – |
| Ac-CGSGSGSGCGCPCIWPELCPWIRSC-NH2 (also: bicyclic or more (positions not given here)) [compound 11, original peptide template of the 11-X14 library] | – | – | no binding affinity | – | – |
| Ac-GAMILLDTDIWAPASHPYAAPENIAA-NH2 [16-Ala, linear counterpart (Cys-to-Ala mutant) of 16] | negligible affinity | – | – | – | – |
